In ChEMBL document CHEMBL1201862, “PubChem BioAssay data set” (2004):
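Exposure lasted 48 hours, with cells grown in 96-well plates and compounds tested at five concentrations. Abbreviation: GI50, concentration required for 50% inhibition of growth.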 Active and inactive are the calls of the source. No stated cut-off is given here; in the data, active = GI50 up to about 1.1 µM and inactive = higher.

Columns and labels:
Test in all cases: NCI tumour cell line growth inhibition, 48 h
K562 = test system: K562
LOX IMVI = test system: LOX IMVI
OVCAR-3 = test system: OVCAR-3
Malme-3M = test system: Malme-3M
U-251 = test system: U-251
A549 = test system: A549
HT-29 = test system: HT-29
CCRF-CEM = test system: CCRF-CEM
KM12 = test system: KM12
RXF 393 = test system: RXF 393
UACC-62 = test system: UACC-62
NCI-H460 = test system: NCI-H460
SF-539 = test system: SF-539
HL-60 = test system: HL-60
MOLT-4 = test system: MOLT-4
NCI-H226 = test system: NCI-H226
COLO 205 = test system: COLO 205
HCT-15 = test system: HCT-15
NCI/ADR-RES = test system: NCI/ADR-RES
A498 = test system: A498
SK-MEL-28 = test system: SK-MEL-28
ACHN = test system: ACHN
SN12C = test system: SN12C
CAKI-1 = test system: CAKI-1
SK-MEL-2 = test system: SK-MEL-2
MCF7 = test system: MCF7
HOP-92 = test system: HOP-92
OVCAR-4 = test system: OVCAR-4
EKVX = test system: EKVX
HOP-62 = test system: HOP-62
OVCAR-5 = test system: OVCAR-5
UACC-257 = test system: UACC-257
PC-3 = test system: PC-3
BT-549 = test system: BT-549
SK-MEL-5 = test system: SK-MEL-5
SW-620 = test system: SW-620
786-0 = test system: 786-0
M14 = test system: M14
MDA-N = test system: MDA-N
UO-31 = test system: UO-31
SNB-75 = test system: SNB-75
SR = test system: SR
NCI-H23 = test system: NCI-H23
OVCAR-8 = test system: OVCAR-8
Hs-578T = test system: Hs-578T
TK-10 = test system: TK-10
HCT-116 = test system: HCT-116
HCC 2998 = test system: HCC 2998
IGROV-1 = test system: IGROV-1
MDA-MB-435 = test system: MDA-MB-435
SNB-19 = test system: SNB-19
MDA-MB-231 = test system: MDA-MB-231
SK-OV-3 = test system: SK-OV-3
SF-295 = test system: SF-295
NCI-H522 = test system: NCI-H522
DU-145 = test system: DU-145
RPMI-8226 = test system: RPMI-8226
SF-268 = test system: SF-268

O=C1Nc2c(Cl)cc(Cl)cc2C1=O
GI50 (K562): 29200 nM (inactive)
GI50 (LOX IMVI): 14400 nM (inactive)
GI50 (OVCAR-3): 20300 nM (inactive)
GI50 (Malme-3M): 1940 nM (inactive)
GI50 (U-251): 21200 nM (inactive)
GI50 (A549): 19300 nM (inactive)
GI50 (HT-29): 27400 nM (inactive)
GI50 (CCRF-CEM): 21300 nM (inactive)
GI50 (KM12): 30500 nM (inactive)
GI50 (RXF 393): 13600 nM (inactive)
GI50 (UACC-62): 15800 nM (inactive)
GI50 (NCI-H460): 21000 nM (inactive)
GI50 (SF-539): 17200 nM (inactive)
GI50 (HL-60): 2400 nM (inactive)
GI50 (MOLT-4): 18000 nM (inactive)
GI50 (NCI-H226): 18500 nM (inactive)
GI50 (COLO 205): 23500 nM (inactive)
GI50 (HCT-15): 20600 nM
GI50 (NCI/ADR-RES): 19700 nM (inactive)
GI50 (A498): 23200 nM (inactive)
GI50 (SK-MEL-28): 17700 nM (inactive)
GI50 (ACHN): 34200 nM (inactive)
GI50 (SN12C): 17900 nM (inactive)
GI50 (CAKI-1): 17900 nM (inactive)
GI50 (SK-MEL-2): 13900 nM (inactive)
GI50 (MCF7): 18500 nM (inactive)
GI50 (HOP-92): 24100 nM (inactive)
GI50 (OVCAR-4): 17800 nM (inactive)
GI50 (EKVX): 14600 nM (inactive)
GI50 (HOP-62): 18500 nM (inactive)
GI50 (OVCAR-5): 20700 nM (inactive)
GI50 (UACC-257): 18600 nM (inactive)
GI50 (PC-3): 24300 nM (inactive)
GI50 (BT-549): 18000 nM (inactive)
GI50 (SK-MEL-5): 15300 nM (inactive)
GI50 (SW-620): 18500 nM (inactive)
GI50 (786-0): 17300 nM (inactive)
GI50 (M14): 19600 nM (inactive)
GI50 (MDA-N): 8990 nM (inactive)
GI50 (UO-31): 19300 nM (inactive)
GI50 (SNB-75): 6030 nM (inactive)
GI50 (SR): 12200 nM (inactive)
GI50 (NCI-H23): 23500 nM (inactive)
GI50 (OVCAR-8): 16900 nM (inactive)
GI50 (Hs-578T): 16400 nM (inactive)
GI50 (TK-10): 95900 nM (inactive)
GI50 (HCT-116): 19300 nM (inactive)
GI50 (HCC 2998): 34700 nM (inactive)
GI50 (IGROV-1): 17700 nM (inactive)
GI50 (MDA-MB-435): 4270 nM (inactive)
GI50 (SNB-19): > 100000 nM (inactive)
GI50 (MDA-MB-231): 21200 nM (inactive)
GI50 (SK-OV-3): 77400 nM (inactive)
GI50 (SF-295): 17100 nM (inactive)

CC(=O)O[C@@H]1C2=C(C3=C([O-])C4=CC=CC(=O)C4C(=O)C3=C2[N+]#N)[C@H](OC(C)=O)[C@@H](OC(C)=O)[C@]1(C)O (stereo partly drawn)
GI50 (K562): 151 nM (active)
GI50 (LOX IMVI): 124 nM (active)
GI50 (OVCAR-3): 502 nM (active)
GI50 (Malme-3M): 332 nM (active)
GI50 (A549): 292 nM (active)
GI50 (CCRF-CEM): 32.3 nM (active)
GI50 (KM12): 333 nM (active)
GI50 (RXF 393): 565 nM (active)
GI50 (UACC-62): 661 nM (active)
GI50 (NCI-H460): 693 nM (active)
GI50 (SF-539): 508 nM (active)
GI50 (HL-60): 105 nM (active)
GI50 (NCI-H522): 173 nM (active)
GI50 (MOLT-4): 95.9 nM (active)
GI50 (NCI-H226): 537 nM (active)
GI50 (HCT-15): 119 nM
GI50 (NCI/ADR-RES): 128 nM (active)
GI50 (A498): 923 nM (active)
GI50 (DU-145): 383 nM (active)
GI50 (SK-MEL-28): 743 nM (active)
GI50 (ACHN): 141 nM (active)
GI50 (CAKI-1): 407 nM (active)
GI50 (SK-MEL-2): 832 nM (active)
GI50 (MCF7): 392 nM (active)
GI50 (HOP-92): 438 nM (active)
GI50 (OVCAR-4): 731 nM (active)
GI50 (EKVX): 605 nM (active)
GI50 (HOP-62): 711 nM (active)
GI50 (OVCAR-5): 353 nM (active)
GI50 (UACC-257): 719 nM (active)
GI50 (PC-3): 417 nM (active)
GI50 (BT-549): 631 nM (active)
GI50 (RPMI-8226): 115 nM (active)
GI50 (SK-MEL-5): 506 nM (active)
GI50 (SW-620): 284 nM (active)
GI50 (786-0): 306 nM (active)
GI50 (M14): 177 nM (active)
GI50 (MDA-N): 361 nM (active)
GI50 (UO-31): 561 nM (active)
GI50 (SNB-75): 186 nM (active)
GI50 (SR): 101 nM (active)
GI50 (NCI-H23): 746 nM (active)
GI50 (OVCAR-8): 184 nM (active)
GI50 (Hs-578T): 173 nM (active)
GI50 (TK-10): 484 nM (active)
GI50 (HCT-116): 100 nM (active)
GI50 (SF-268): 302 nM (active)
GI50 (HCC 2998): 262 nM (active)
GI50 (IGROV-1): 347 nM (active)
GI50 (MDA-MB-435): 644 nM (active)
GI50 (SNB-19): 951 nM (active)
GI50 (MDA-MB-231): 286 nM (active)
GI50 (SK-OV-3): 731 nM (active)
GI50 (SF-295): 385 nM (active)
